# In patent publication US20090270394A1, “CYCLYLAMINE DERIVATIVES AS CALCIUM CHANNEL BLOCKERS” (priority 2008, published 2009):
# Target: T1, Human Cav2.2 channels (Homo sapiens, UniProt Q00975)
# T1 construct: expressed in transfected cells
# Assay: Fluorescent assay for Cav2.2 channels using potassium depolarization to initiate channel opening
# Type: cell-based
# Settings: for inhibition at 10 µM: 10 μM compound, read-out: Cav 2.2 Activity % Inh at 10 μM; for inhibition at 30 µM: 30 μM compound, read-out: Cav 2.2 Activity % Inh at 30 μM; for IC50: 30 mM K (block of open and inactivated channels), read-out: Cav 2.2 Activity IC50 at 30 mM K
# Source text: Human Cav2.2 channels were stably expressed in HEK293 cells along with alpha2-delta and beta subunits of voltage-gated calcium channels. An inwardly rectifying potassium channel (Kir2.3) was also expressed in these cells to allow more precise control of the cell membrane potential by extracellular potassium concentration. At low bath potassium concentration, the membrane potential is relatively negative, and is depolarized as the bath potassium concentration is raised. In this way, the bath potassium concentration can be used to regulate the voltage-dependent conformations of the channels. […] After the incubation period, Cav2.2 channel opening is triggered by addition of higher concentration of potassium (70 mM final concentration) to further depolarize the cell. The degree of state-dependent block can be estimated from the inhibitory potency of compounds after incubation in different potassium concentrations.
# Calcium influx through Cav2.2 channels is determined using a calcium sensitive fluorescent dye in combination with a fluorescent plate reader. Fluorescent changes were measured with either a VIPR (Aurora Instruments) or FLIPR (Molecular Devices) plate reader.
# • 1. Seed cells in Poly-D-Lysine Coated 96 or 384-well plate and keep in a 37° C.-10% CO2 incubator overnight • 2. […] Incubate in the dark at 25° C. for 60-70 min • 5. Remove dye, wash cells with 0.1 mL (96-well plate) or 0.06 mL (384-well plate) of 4, 12, 25, or 30 mM Potassium Pre-polarization Buffer (PPB) • 6. […] Incubate in the dark at 25° C. for 30 min • 8. Read cell plate on VIPR instrument, Excitation=480 nm, Emission=535 nm • 9. With VIPR continuously reading, add 0.1 mL (96-well plate) or 0.03 mL (384-well plate) of Depolarization Buffer (DB), which is 2× the final assay concentration, to the cell plate.
# T1 sequence (Q00975 whole entry): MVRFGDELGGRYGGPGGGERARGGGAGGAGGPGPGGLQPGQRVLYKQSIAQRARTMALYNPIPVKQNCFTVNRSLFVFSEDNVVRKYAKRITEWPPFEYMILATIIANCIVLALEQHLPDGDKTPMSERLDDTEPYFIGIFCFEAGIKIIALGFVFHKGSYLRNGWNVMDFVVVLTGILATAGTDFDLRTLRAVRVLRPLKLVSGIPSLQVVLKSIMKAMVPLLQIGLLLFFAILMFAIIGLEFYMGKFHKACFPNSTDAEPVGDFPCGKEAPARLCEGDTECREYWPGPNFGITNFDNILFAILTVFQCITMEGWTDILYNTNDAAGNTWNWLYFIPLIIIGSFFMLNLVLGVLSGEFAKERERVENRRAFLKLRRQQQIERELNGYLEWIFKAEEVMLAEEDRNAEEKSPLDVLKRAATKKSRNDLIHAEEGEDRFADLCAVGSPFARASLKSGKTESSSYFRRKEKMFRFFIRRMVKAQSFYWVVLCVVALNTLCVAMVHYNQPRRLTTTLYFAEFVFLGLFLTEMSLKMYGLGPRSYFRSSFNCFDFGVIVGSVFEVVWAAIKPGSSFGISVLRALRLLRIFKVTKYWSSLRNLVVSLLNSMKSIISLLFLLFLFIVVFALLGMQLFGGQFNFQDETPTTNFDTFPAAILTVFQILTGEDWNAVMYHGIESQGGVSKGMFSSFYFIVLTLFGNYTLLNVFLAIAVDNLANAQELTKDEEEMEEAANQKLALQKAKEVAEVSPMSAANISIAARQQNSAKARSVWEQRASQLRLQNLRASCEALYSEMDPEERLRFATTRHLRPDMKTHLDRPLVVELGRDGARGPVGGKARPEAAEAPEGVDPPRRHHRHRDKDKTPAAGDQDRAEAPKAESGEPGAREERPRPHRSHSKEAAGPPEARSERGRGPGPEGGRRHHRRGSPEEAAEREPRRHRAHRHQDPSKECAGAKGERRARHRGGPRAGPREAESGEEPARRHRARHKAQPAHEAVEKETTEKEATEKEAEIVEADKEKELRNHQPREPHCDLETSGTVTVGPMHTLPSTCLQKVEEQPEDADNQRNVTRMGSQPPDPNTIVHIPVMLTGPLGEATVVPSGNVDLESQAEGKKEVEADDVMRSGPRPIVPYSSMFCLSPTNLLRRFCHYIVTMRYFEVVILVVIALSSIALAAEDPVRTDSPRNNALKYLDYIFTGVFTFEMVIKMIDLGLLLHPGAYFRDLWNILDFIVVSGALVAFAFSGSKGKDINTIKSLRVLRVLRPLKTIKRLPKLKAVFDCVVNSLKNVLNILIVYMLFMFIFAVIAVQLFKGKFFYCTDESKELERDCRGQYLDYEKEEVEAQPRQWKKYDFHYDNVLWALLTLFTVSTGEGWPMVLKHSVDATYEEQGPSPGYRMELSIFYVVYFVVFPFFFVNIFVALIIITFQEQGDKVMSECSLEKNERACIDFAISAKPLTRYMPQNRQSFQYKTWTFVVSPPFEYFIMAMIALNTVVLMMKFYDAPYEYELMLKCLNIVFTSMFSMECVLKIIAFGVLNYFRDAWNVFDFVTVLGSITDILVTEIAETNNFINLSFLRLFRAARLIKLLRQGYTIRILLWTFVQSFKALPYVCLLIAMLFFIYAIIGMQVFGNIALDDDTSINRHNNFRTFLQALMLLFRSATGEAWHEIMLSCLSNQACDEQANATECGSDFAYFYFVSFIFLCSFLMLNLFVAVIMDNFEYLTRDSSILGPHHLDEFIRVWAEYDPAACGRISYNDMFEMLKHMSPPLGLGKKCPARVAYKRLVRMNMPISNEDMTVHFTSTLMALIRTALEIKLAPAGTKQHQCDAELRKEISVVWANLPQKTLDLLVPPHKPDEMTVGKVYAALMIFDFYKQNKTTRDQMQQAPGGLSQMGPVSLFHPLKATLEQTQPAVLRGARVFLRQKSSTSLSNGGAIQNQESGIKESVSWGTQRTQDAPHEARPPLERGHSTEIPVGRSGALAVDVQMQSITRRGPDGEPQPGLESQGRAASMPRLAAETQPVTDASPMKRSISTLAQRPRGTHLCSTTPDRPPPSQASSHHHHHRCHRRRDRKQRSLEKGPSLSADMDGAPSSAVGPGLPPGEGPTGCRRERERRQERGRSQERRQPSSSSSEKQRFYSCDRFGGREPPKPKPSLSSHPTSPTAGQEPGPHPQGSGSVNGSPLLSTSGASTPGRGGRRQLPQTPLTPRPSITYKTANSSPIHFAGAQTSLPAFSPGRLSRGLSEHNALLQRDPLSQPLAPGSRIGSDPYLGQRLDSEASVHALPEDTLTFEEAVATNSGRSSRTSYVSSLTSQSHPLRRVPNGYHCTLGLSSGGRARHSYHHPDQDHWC
# T1 sequence (P54289 25-1103 partner): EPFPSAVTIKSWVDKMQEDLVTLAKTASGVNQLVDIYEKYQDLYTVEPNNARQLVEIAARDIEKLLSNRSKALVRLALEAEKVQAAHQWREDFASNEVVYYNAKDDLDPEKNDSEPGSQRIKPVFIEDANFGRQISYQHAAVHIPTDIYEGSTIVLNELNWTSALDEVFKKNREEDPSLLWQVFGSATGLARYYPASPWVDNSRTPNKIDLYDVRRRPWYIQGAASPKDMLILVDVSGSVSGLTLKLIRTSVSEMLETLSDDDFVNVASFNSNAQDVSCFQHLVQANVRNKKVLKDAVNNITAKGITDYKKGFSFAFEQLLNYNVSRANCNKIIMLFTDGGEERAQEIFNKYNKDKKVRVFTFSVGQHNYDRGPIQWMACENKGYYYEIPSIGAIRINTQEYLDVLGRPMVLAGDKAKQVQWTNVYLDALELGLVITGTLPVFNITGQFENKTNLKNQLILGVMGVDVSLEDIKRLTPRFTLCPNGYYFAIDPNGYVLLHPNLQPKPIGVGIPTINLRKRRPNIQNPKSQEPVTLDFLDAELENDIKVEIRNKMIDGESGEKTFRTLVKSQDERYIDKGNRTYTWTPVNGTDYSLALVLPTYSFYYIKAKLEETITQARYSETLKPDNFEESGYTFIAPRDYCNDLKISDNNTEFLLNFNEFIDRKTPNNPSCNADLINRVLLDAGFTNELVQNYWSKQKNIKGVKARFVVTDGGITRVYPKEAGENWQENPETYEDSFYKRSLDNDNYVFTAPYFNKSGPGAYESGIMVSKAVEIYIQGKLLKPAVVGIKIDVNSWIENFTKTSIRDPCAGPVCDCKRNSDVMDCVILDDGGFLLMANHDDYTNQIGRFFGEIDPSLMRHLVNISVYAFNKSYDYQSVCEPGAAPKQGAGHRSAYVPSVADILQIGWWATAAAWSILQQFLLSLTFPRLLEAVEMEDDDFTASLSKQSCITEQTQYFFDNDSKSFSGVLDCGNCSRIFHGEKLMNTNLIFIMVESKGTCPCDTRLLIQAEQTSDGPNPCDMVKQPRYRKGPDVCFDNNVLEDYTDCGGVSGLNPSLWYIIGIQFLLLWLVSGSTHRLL
# T1 sequence (P54284 whole entry partner): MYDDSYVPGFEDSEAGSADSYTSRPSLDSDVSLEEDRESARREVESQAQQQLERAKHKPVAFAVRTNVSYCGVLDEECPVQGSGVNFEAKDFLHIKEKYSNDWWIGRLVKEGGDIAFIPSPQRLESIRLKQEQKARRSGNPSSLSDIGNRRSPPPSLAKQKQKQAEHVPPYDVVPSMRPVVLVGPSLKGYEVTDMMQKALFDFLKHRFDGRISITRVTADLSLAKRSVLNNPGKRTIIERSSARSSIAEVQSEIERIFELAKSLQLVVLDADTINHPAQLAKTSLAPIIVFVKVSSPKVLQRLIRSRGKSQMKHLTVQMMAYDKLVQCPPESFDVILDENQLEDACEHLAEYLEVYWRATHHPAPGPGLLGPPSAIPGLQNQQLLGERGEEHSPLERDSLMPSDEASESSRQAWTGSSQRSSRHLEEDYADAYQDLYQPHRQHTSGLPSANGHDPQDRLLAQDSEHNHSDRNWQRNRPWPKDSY
SMILES,inhibition at 10 µM [%],inhibition at 30 µM [%],IC50 [µM]
"CC(C)(C)c1cc(C(=O)NC2(C(=O)NCc3ccccn3)CCCCC2)cc(C(C)(C)C)c1 [Compound 47, 3,5-di-tert-butyl-N-(1-(pyridin-2-ylmethylcarbamoyl)cyclohexyl)benzamide]",93.7,95.3,0.0356
"CC(C)(C)c1cc(C(=O)NC2(C(=O)NCc3ccc(Cl)cc3)CCCCC2)cc(C(C)(C)C)c1 [Compound 46, 3,5-di-tert-butyl-N-(1-(4-chlorobenzylcarbamoyl)cyclohexyl)benzamide]",96.6,97.9,0.0779
"CC(C)(C)c1cc(C(=O)NC2(C(=O)NCc3ccccc3)CCNCC2)cc(C(C)(C)C)n1 [Compound 64, N-(4-(benzylcarbamoyl)piperidin-4-yl)-2,6-di-tert-butylisonicotinamide]",69.5,104,
"Cc1cc(CNC(=O)C2(NC(=O)c3cc(C(C)(C)C)nc(C(C)(C)C)c3)CC2)no1 [Compound 9, 2,6-di-tert-butyl-N-(1-((5-methylisoxazol-3-yl)methylcarbamoyl)cyclopropyl)isonicotinamide]",45.7,53.4,
"CN1CCC(NC(=O)c2cc(C(C)(C)C)nc(C(C)(C)C)c2)(C(=O)NCc2ccccc2)CC1 [Compound 97, N-(4-(benzylcarbamoyl)-1-methylpiperidin-4-yl)-2,6-di-tert-butylisonicotinamide]",76,90.6,1.07
"Cc1cc(CNC(=O)C2(NC(=O)c3cc(C(C)(C)C)cc(C(C)(C)C)c3)CCCCC2)no1 [Compound 51, 3,5-di-tert-butyl-N-(1-((5-methylisoxazol-3-yl)methylcarbamoyl)cyclohexyl)benzamide]",106,106,0.0635
"CC(C)(C#N)c1cccc(C(=O)NC2(C(=O)NCc3ccccc3)CCCCC2)c1 [Compound 123, N-(1-(benzylcarbamoyl)cyclohexyl)-3-(2-cyanopropan-2-yl)benzamide]",53.5,27.3,
"CC(C)(C)c1cc(C(=O)NC2(C(=O)NCc3cccc(C(F)(F)F)c3)Cc3ccccc3C2)cc(C(C)(C)C)c1 [Compound 53, 2-(3,5-di-tert-butylbenzamido)-N-(3-(trifluoromethyl)benzyl)-2,3-dihydro-1H-indene-2-carboxamide]",56.3,74.3,
"COc1c(C(C)(C)C)cc(C(=O)NC2(C(=O)N3CCCC3)CCCCC2)cc1C(C)(C)C [Compound 30, 3,5-di-tert-butyl-4-methoxy-N-(1-(pyrrolidine-1-carbonyl)cyclohexyl)benzamide]",91.7,93.4,0.0252
"CC(C)(C)c1cc(C(=O)NC2(C(=O)NCc3ccc(S(C)(=O)=O)cc3)CCCCC2)cc(C(C)(C)C)c1 [Compound 107, 3,5-di-tert-butyl-N-(1-(4-(methylsulfonyl)benzylcarbamoyl)cyclohexyl)benzamide]",,,0.143
"COc1c(C(C)(C)C)cc(C(=O)NC2(C(=O)Nc3ccccc3)CCCCC2)cc1C(C)(C)C [Compound 96, 3,5-di-tert-butyl-4-methoxy-N-(1-(phenylcarbamoyl)cyclohexyl)benzamide]",77.7,82.6,0.161
"CC(C)(C)c1cc(C(=O)NC2(C(=O)NCc3ccccc3)CCCCC2)cc(C(C)(C)C)c1 [Compound 44, N-(1-(benzylcarbamoyl)cyclohexyl)-3,5-di-tert-butylbenzamide]",92.5,97.3,0.0604
"CN(C)Cc1ccc(CNC(=O)C2(NC(=O)c3cc(C(C)(C)C)nc(C(C)(C)C)c3)CCOCC2)cc1 [Compound 23, 2,6-di-tert-butyl-N-(4-(4-((dimethylamino)methyl)benzylcarbamoyl)tetrahydro-2H-pyran-4-yl)isonicotinamide]",87.4,,
"CC(C)(C)NC(=O)C(C)(C)c1cc(C(=O)NC2(C(=O)NCc3ccccc3)CCCCC2)cc(C(C)(C)C(=O)NC(C)(C)C)c1 [Compound 63, 2,2′-(5-(1-(benzylcarbamoyl)cyclohexylcarbamoyl)-1,3-phenylene)bis(N-tert-butyl-2-methylpropanamide)]",66.4,82,
"COc1ccc(CNC(=O)C2(NC(=O)c3cc(C(C)(C)C)c(OC)c(C(C)(C)C)c3)CC2)cc1 [Compound 110, 3,5-di-tert-butyl-4-methoxy-N-(1-(4-methoxybenzylcarbamoyl)cyclopropyl)benzamide]",100,101,0.121
"CC(C)(C)c1cc(C(=O)NC2(C(=O)NCc3ccccc3)CCCC2)cc(C(C)(C)C)c1 [Compound 36, N-(1-(benzylcarbamoyl)cyclopentyl)-3,5-di-tert-butylbenzamide]",92,96.4,0.251
"CC(C)(C)c1cc(C(=O)NC2(C(=O)NCc3ccccn3)CC2)cc(C(C)(C)C)n1 [Compound 21, 2,6-di-tert-butyl-N-(1-(pyridin-2-ylmethylcarbamoyl)cyclopropyl)isonicotinamide]",97.1,,0.143
"CN(C)c1ccccc1CNC(=O)C1(NC(=O)c2cc(C(C)(C)C)nc(C(C)(C)C)c2)CCOCC1 [Compound 26, 2,6-di-tert-butyl-N-(4-(2-(dimethylamino)benzylcarbamoyl)tetrahydro-2H-pyran-4-yl)isonicotinamide]",49,,
"CC(C)(C)c1cc(C(=O)NC2(C(=O)NCc3ccccc3)CCCCC2)cc(C(C)(C)C)n1 [Compound 56, N-(1-(benzylcarbamoyl)cyclohexyl)-2,6-di-tert-butylisonicotinamide]",84.4,92.6,0.321
"CC(C)(C#N)c1cc(C(=O)NC2(C(=O)NCc3ccccc3)CCCCC2)cc(C(C)(C)C#N)c1 [Compound 41, N-(1-(benzylcarbamoyl)cyclohexyl)-3,5-bis(2-cyanopropan-2-yl)benzamide]",76,73.3,0.985
"Cc1cnc(CNC(=O)C2(NC(=O)c3cc(C(C)(C)C)nc(C(C)(C)C)c3)CC2)cn1 [Compound 11, 2,6-di-tert-butyl-N-(1-((5-methylpyrazin-2-yl)methylcarbamoyl)cyclopropyl)isonicotinamide]",91.9,92.2,0.336
"CN1CCN(Cc2ccc(CNC(=O)C3(NC(=O)c4cc(C(C)(C)C)nc(C(C)(C)C)c4)CCOCC3)cc2)CC1 [Compound 27, 2,6-di-tert-butyl-N-(4-(4-((4-methylpiperazin-1-yl)methyl)benzylcarbamoyl)tetrahydro-2H-pyran-4-yl)isonicotinamide]",102,,1.04
"COc1c(C(C)(C)C)cc(CNC(=O)C2(NC(=O)c3cccc(C(F)(F)F)c3)CCCCC2)cc1C(C)(C)C [Compound 73, N-(1-(3,5-di-tert-butyl-4-methoxybenzylcarbamoyl)cyclohexyl)-3-(trifluoromethyl)benzamide]",95.2,97.7,0.124
"CC(C)(C)c1cc(C(=O)NC2(C(=O)NCc3cccnc3)CCCCC2)cc(C(C)(C)C)c1 [Compound 103, 3,5-di-tert-butyl-N-(1-(pyridin-3-ylmethylcarbamoyl)cyclohexyl)benzamide]",,,0.0653
